{"source": "paper PMC3169616", "about": "“Unique Residues Involved in Activation of the Multitasking Protease/Chaperone HtrA from Chlamydia trachomatis” (PLoS ONE, 2011)", "key": {"CtHtrA": {"biological_target": "T1, CtHtrA (Chlamydia trachomatis serovar D, UniProt P18584)", "T1 construct": "His-tag; made in house; host or cells: E. coli BL21 (DE3), plasmid pETHtrA", "T1 sequence (P18584 17-497)": "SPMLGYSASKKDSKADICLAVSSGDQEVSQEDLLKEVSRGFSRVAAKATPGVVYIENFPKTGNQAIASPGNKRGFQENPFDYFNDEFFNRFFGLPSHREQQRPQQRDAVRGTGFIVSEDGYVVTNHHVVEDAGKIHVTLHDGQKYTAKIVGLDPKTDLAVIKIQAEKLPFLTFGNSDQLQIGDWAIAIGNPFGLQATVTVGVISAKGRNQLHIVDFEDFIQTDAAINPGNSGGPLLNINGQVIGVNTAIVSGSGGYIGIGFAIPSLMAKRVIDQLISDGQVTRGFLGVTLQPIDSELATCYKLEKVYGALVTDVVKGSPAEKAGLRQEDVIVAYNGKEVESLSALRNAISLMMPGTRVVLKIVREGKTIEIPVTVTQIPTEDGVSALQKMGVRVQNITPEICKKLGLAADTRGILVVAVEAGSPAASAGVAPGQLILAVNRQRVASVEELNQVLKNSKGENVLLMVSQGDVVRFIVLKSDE", "test": "MS and MS-MS analysis of peptide cleavage products", "assay_type": "biochemical", "settings": "data not shown", "experimental": "Bcas1 and Act1 peptides (150 µM concentration) digested with CtHtrA (71 µg) were analysed by online LC/MS/MS using a QStar Pulsar I (Applied Biosystems) in […] mode. Data acquired were converted into mzXML format using proteowizard (v2) and searched using ([…], the global proteome machine, ftp://ftp.thegpm.org/fasta/cRAP), against CtHtrA and Act1 and Bcas1 peptide sequences with an included decoy database of the reverse sequence for each protein. The search also included potential mass modifications accounting for the additional […] moieties on the N and C peptide termini, respectively. Matches with an expected ratio of <1 were considered identified. All raw data and mass spectra can be made available on request."}, "CtHtrA R373A": {"system": "CtHtrA R373A", "test": "Oligomerisation assay, mutated protein", "assay_type": "biochemical, Chlamydia trachomatis", "settings": "R373A mutant, 10 mins incubation", "experimental": "E. coli DegP proteolysis activation involves the transition from resting hexamers via trimers to 12- and 24-mers following the peptide activator binding to the PDZ1 binding cleft. CtHtrA oligomer formation induced by Act1 addition was examined after incubation for 10 mins at 37°C. The wild type and mutant proteins were incubated with either the ß-casein based activator peptide (Act1), or with whole insulin (intact), or in the absence of any activator as a control. CtHtrA incubated in the absence of any added activators formed 24-mers with some hexamers detected after 10 mins (Fig. 5). […] The R299W mutant was present as hexamer and 24-mer in the control with no activator. […] The L302N mutant was not detected in any higher oligomeric form under any conditions. L302N was detected as faint hexamer and trimer but mostly monomer under all tested conditions (not visible on these gels). […] I365D was detected as hexamers, trimers, 12-mers, and some 24-mers when incubated in the absence of activators.\nThe oligomerisation of HtrA into 12- and 24-mer complexes has been independently detected for E. coli HtrA (DegP). The oligomerisation of HtrA (DegP) was triggered by peptides from digested ß-casein [18]. Assays to detect whether CtHtrA and site directed mutant protein oligomerisation was triggered by substrates were conducted essentially as previously described (Merdanovic et al., 2010). Briefly, 2 mg/ml protein solutions in 100 mM sodium phosphate buffer pH 7.0 were pre-incubated to the required temperature. The ligands (activator peptide, or insulin) were added and at 10 min, and the proteins were fixed using 0.5% glutaraldehyde. Samples were fixed at room temperature for 2 min prior to addition of 1 M Tris pH 7.5 to remove any excess glutaraldehyde. Samples were incubated for another 10 min at room temperature prior to addition of SDS PAGE reducing loading buffer. The protein samples were examined on 3–8% TrisAcetate gradient polyacrylamide gels (Novex, Invitrogen) by silver staining. The proteins used in this study were not initially denatured by treatment with urea as, the refolding, formation of oligomers, and protease activity was never successfully detected with denatured CtHtrA. All assays were conducted in duplicate on three separate occasions with at least two gels of each experiment completed for each assay condition."}}, "data": [{"substance": "H-VLGPVRGPFPIIV-OH [Act1]", "values": [{"measurement": "cleavage of activator peptide by CtHtrA, MALDI MS MS", "setting": "CtHtrA", "value": "No evidence of Act1 cleavage"}, {"measurement": "oligomer formation induced by activator", "setting": "CtHtrA R373A", "value": "resulted in 24-mer formation"}]}]}
